These results are taken from PMC11947619, “Molecular mechanism of Mad2 conformational conversion promoted by the Mad2‐interaction motif of Cdc20” (Protein Science : A Publication of the Protein Society, 2025).

Residues, ends and D or L forms follow the SMILES beside them.

The test concerns the target T1, O‐Mad2^WT (Homo sapiens, UniProt Q13257).
T1 construct: MD simulations on the full‐length O‐Mad2:C‐Mad2:Mad1^MIM complex; His6-DoubleStrep-TEV (N); made in house
As to the kind of experiment: NMR: conversion of monomeric wild-type O-Mad2^WT. It counts as biochemical. Particulars: O-Mad2^WT 300 μM, two-fold molar excess peptide, HSQC, 25°C. How it is done: FIGURE 6 O‐Mad2 retains its dynamic and structural properties in the O‐Mad2:C‐Mad2 dimer. (a, c) HSQC spectra of 300 μM wild‐type O‐Mad2^WT (a, light blue) and O‐Mad2^WT:(C‐Mad2^WT:Mad1^MIM) (c, blue). The schematics show the conformation of Mad2 as indicated by the tryptophan side‐chain resonances and their oligomeric states as determined by SEC‐MALS (insets). The SEC peaks are labeled with their molecular masses (kDa), where the theoretical molecular masses for monomeric and dimeric Mad2 are 23.5 and 47.0 kDa, respectively. For the dimeric samples, only one of the monomers was isotopically labeled and observable by NMR. Distinct chemical shift differences were also observed for Gly50 in O‐Mad2 and C‐Mad2, and its resonances are marked in the spectra. Cdc20^MIM‐123‐152 was added at two‐fold molar excess to O‐Mad2^WT (a), and O‐Mad2^WT:(C‐Mad2^WT:Mad1^MIM) (c). (b, d) This generated C‐Mad2^WT‐Cdc20^MIM (b, brown), and (C‐Mad2^WT:Cdc20^MIM):(C‐Mad2^WT:Mad1^MIM) (d, yellow), respectively. Their spectra are overlaid with that of C‐Mad2^L13A/R133A:Cdc20^MIM (red) for comparison. (e) Cα RMSF were determined from MD simulations at 300 K for monomeric O‐Mad2 (blue line) and O‐Mad2 in a O‐Mad2:C‐Mad2:Mad1^MIM dimer (brown dotted line). […]
For wild‐type Mad2, the protein was expressed as O‐Mad2^WT using the conditions described above. […]

T1 sequence (Q13257 whole entry): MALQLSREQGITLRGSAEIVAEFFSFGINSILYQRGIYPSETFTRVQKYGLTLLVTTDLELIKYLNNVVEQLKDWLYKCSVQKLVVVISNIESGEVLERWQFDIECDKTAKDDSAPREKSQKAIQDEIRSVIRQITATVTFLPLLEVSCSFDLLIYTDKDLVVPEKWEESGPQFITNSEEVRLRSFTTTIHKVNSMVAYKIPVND

Regarding `CC[C@H](C)[C@H](NC(=O)[C@H](CCCCN)NC(=O)[C@H](C)NC(=O)[C@H](CCC(=O)O)NC(=O)[C@H](CCC(=O)O)NC(=O)[C@@H](NC(=O)[C@H](CC(=O)O)NC(=O)[C@@H](N)Cc1ccccc1)C(C)C)C(=O)N[C@@H](CC(C)C)C(=O)N[C@@H](CCCNC(=N)N)C(=O)N[C@@H](CC(C)C)C(=O)N[C@@H](CO)C(=O)NCC(=O)N[C@@H](CCCCN)C(=O)N1CCC[C@H]1C(=O)N[C@@H](CCC(N)=O)C(=O)N[C@@H](CC(N)=O)C(=O)N[C@@H](C)C(=O)N1CCC[C@H]1C(=O)N[C@@H](CCC(=O)O)C(=O)NCC(=O)N[C@@H](Cc1ccc(O)cc1)C(=O)N[C@@H](CCC(N)=O)C(=O)N[C@@H](CC(N)=O)C(=O)N[C@@H](CCCNC(=N)N)C(=O)N[C@@H](CC(C)C)C(=O)N[C@@H](CCCCN)C(=O)N[C@H](C(=O)N[C@@H](CC(C)C)C(=O)N[C@@H](Cc1ccc(O)cc1)C(=O)O)C(C)C` [Cdc20^MIM‐123‐152] (H-FDVEEAKILRLSGKPQNAPEGYQNRLKVLY-OH; N-terminus and C-terminus assumed), the “conversion of O-Mad2^WT, in words” value is “converted to C‐Mad2 upon binding Cdc20^MIM”.
